Where “and” joins values, the source holds several entries; their conditions need not be identical. Equal entries are not always repeated.
Tested on: NCI-H1876 complex spheroid growth, % test/control
Assay: Anticancer human tumor NCI-H1876 cell line growth inhibition [Asc];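 further: compound exposure lasted 7 days starting three days after seeding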;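 on viability, T/C: 100% = DMSO vehicle control wells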
Conditions: for viability, T/C: stronger effect = lower value
Procedure, shortened: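 Concentration series start at each agent's clinical Cmax, or at 10 microM when none is established, and drop in half-log steps; agents are applied alone or together to complex spheroids built with HUVEC and hMSC.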

[1] = curve of first compound, second compound 0.0316 µM
[2] = curve of first compound, second compound 0.1 µM
[3] = curve of first compound, second compound 0.316 µM
[4] = curve of first compound, second compound 1 µM

**Q.** What does the source list for `O=C(c1cc(Cc2n[nH]c(=O)c3ccccc23)ccc1F)N1CCN(C(=O)C2CC2)CC1` + Cc1c(S(C)(=O)=O)c(-c2cc(F)cc(N3CCN(c4ccc(NS(=O)(=O)c5ccc(NC(CCN6CCC(C(=O)OCCCP(=O)(O)O)CC6)CSc6ccccc6)c(S(=O)(=O)C(F)(F)F)c5)cc4)CC3)c2)c(-c2ccc(Cl)cc2)n1C(C)C?
**A.** IC50 [1]: > 10 µM; IC50 [2]: > 10 µM; IC50 [3]: > 10 µM; IC50 [4]: 9.96 µM; IC50 (curve of first compound, second compound 3.16 µM): 8.47 µM; IC50 (curve of first compound, second compound 10 µM): 7.79 µM; viability, T/C (second compound 0.0316 µM, first compound 0.0316 µM): 99.6%; viability, T/C (second compound 0.0316 µM, first compound 0.1 µM): 99.1%; viability, T/C (second compound 0.0316 µM, first compound 0.316 µM): 92.8%; viability, T/C (second compound 0.0316 µM, first compound 1 µM): 101%; viability, T/C (second compound 0.0316 µM, first compound 3.16 µM): 97.2%; viability, T/C (second compound 0.0316 µM, first compound 10 µM): 74%; viability, T/C (second compound 0.1 µM, first compound 0.0316 µM): 100%; viability, T/C (second compound 0.1 µM, first compound 0.1 µM): 90.9%; viability, T/C (second compound 0.1 µM, first compound 0.316 µM): 98.2%; viability, T/C (second compound 0.1 µM, first compound 1 µM): 96.2%; viability, T/C (second compound 0.1 µM, first compound 3.16 µM): 95.9%; viability, T/C (second compound 0.1 µM, first compound 10 µM): 73.6%; viability, T/C (second compound 0.316 µM, first compound 0.0316 µM): 90.2%; viability, T/C (second compound 0.316 µM, first compound 0.1 µM): 96.7%; viability, T/C (second compound 0.316 µM, first compound 0.316 µM): 93.5%; viability, T/C (second compound 0.316 µM, first compound 1 µM): 97.9%; viability, T/C (second compound 0.316 µM, first compound 3.16 µM): 96%; viability, T/C (second compound 0.316 µM, first compound 10 µM): 61.2%; viability, T/C (second compound 1 µM, first compound 0.0316 µM): 111%; viability, T/C (second compound 1 µM, first compound 0.1 µM): 97.7%; viability, T/C (second compound 1 µM, first compound 0.316 µM): 90.1%; viability, T/C (second compound 1 µM, first compound 1 µM): 102%; viability, T/C (second compound 1 µM, first compound 3.16 µM): 99.2%; viability, T/C (second compound 1 µM, first compound 10 µM): 49.8%; viability, T/C (second compound 3.16 µM, first compound 0.0316 µM): 101%; viability, T/C (second compound 3.16 µM, first compound 0.1 µM): 94.5%; viability, T/C (second compound 3.16 µM, first compound 0.316 µM): 97.1%; viability, T/C (second compound 3.16 µM, first compound 1 µM): 96%; viability, T/C (second compound 3.16 µM, first compound 3.16 µM): 86.8%; viability, T/C (second compound 3.16 µM, first compound 10 µM): 43.6%; viability, T/C (second compound 10 µM, first compound 0.0316 µM): 95.2%; viability, T/C (second compound 10 µM, first compound 0.1 µM): 98.9%; viability, T/C (second compound 10 µM, first compound 0.316 µM): 86.1%; viability, T/C (second compound 10 µM, first compound 1 µM): 90.1%; viability, T/C (second compound 10 µM, first compound 3.16 µM): 95.3%; viability, T/C (second compound 10 µM, first compound 10 µM): 38.1%

**Q.** With `C=CC(=O)N1CCN(c2nc(=O)n(-c3c(C)ccnc3C(C)C)c3nc(-c4c(O)cccc4F)c(F)cc23)C(C)C1` (stereo unspecified) as the compound, how does the viability, T/C (compound 0.0316 µM) read?
**A.** 116% and 95.9% and 101%

**Q.** What about the viability, T/C (compound 0.1 µM) of the same compound?
**A.** 99.4% and 96% and 86.8%

**Q.** And the viability, T/C (compound 0.316 µM)?
**A.** 106% and 93.2% and 97.1%

**Q.** What about the viability, T/C (compound 1 µM) of the same compound?
**A.** 101% (2×) and 100%

**Q.** And the viability, T/C (compound 3.16 µM)?
**A.** 113% and 108% and 106%

**Q.** What about the viability, T/C (compound 10 µM) of the same compound?
**A.** 110% and 106% and 109%

**Q.** What about the IC50 (curve of compound) of the same compound?
**A.** > 10 µM

**Q.** With `CCN1C(C(=O)NC23CCC(C(=O)O)(CC2)CC3)C(c2cccc(Cl)c2F)C2(C(=O)Nc3cc(Cl)ccc32)C12CCCCC2` (stereo unspecified) + CNC(C)C(=O)NC1CN(S(=O)(=O)c2cccc(S(=O)(=O)N3CCC4CCC(C(=O)NC(c5ccccc5)c5ccccc5)N4C(=O)C(NC(=O)C(C)NC)C3)c2)CCC2CCC(C(=O)NC(c3ccccc3)c3ccccc3)N2C1=O as the compound, how does the IC50 (curve of first compound, second compound 0.00316 µM) read?
**A.** > 3 µM

**Q.** And the IC50 (curve of first compound, second compound 0.01 µM)?
**A.** > 3 µM

**Q.** What about the IC50 [1] of the same compound?
**A.** > 3 µM

**Q.** What about the IC50 [2] of the same compound?
**A.** > 3 µM

**Q.** And the IC50 [3]?
**A.** > 3 µM

**Q.** And the IC50 [4]?
**A.** > 3 µM

**Q.** What about the viability, T/C (second compound 0.00316 µM, first compound 0.00949 µM) of the same compound?
**A.** 115%

**Q.** What about the viability, T/C (second compound 0.00316 µM, first compound 0.03 µM) of the same compound?
**A.** 98%

**Q.** And the viability, T/C (second compound 0.00316 µM, first compound 0.0949 µM)?
**A.** 111%

**Q.** What about the viability, T/C (second compound 0.00316 µM, first compound 0.3 µM) of the same compound?
**A.** 101%

**Q.** What about the viability, T/C (second compound 0.00316 µM, first compound 0.949 µM) of the same compound?
**A.** 123%

**Q.** What about the viability, T/C (second compound 0.00316 µM, first compound 3 µM) of the same compound?
**A.** 107%

**Q.** And the viability, T/C (second compound 0.01 µM, first compound 0.00949 µM)?
**A.** 110%

**Q.** And the viability, T/C (second compound 0.01 µM, first compound 0.03 µM)?
**A.** 99.9%

**Q.** What about the viability, T/C (second compound 0.01 µM, first compound 0.0949 µM) of the same compound?
**A.** 104%

**Q.** And the viability, T/C (second compound 0.01 µM, first compound 0.3 µM)?
**A.** 101%

**Q.** What about the viability, T/C (second compound 0.01 µM, first compound 0.949 µM) of the same compound?
**A.** 120%

**Q.** And the viability, T/C (second compound 0.01 µM, first compound 3 µM)?
**A.** 105%

**Q.** What about the viability, T/C (second compound 0.0316 µM, first compound 0.00949 µM) of the same compound?
**A.** 105%

**Q.** What about the viability, T/C (second compound 0.0316 µM, first compound 0.03 µM) of the same compound?
**A.** 101%

**Q.** What about the viability, T/C (second compound 0.0316 µM, first compound 0.0949 µM) of the same compound?
**A.** 115%

**Q.** And the viability, T/C (second compound 0.0316 µM, first compound 0.3 µM)?
**A.** 104%

**Q.** And the viability, T/C (second compound 0.0316 µM, first compound 0.949 µM)?
**A.** 132%

**Q.** And the viability, T/C (second compound 0.0316 µM, first compound 3 µM)?
**A.** 109%

**Q.** What about the viability, T/C (second compound 0.1 µM, first compound 0.00949 µM) of the same compound?
**A.** 92.5%

**Q.** What about the viability, T/C (second compound 0.1 µM, first compound 0.03 µM) of the same compound?
**A.** 111%

**Q.** And the viability, T/C (second compound 0.1 µM, first compound 0.0949 µM)?
**A.** 101%

**Q.** And the viability, T/C (second compound 0.1 µM, first compound 0.3 µM)?
**A.** 102%

**Q.** And the viability, T/C (second compound 0.1 µM, first compound 0.949 µM)?
**A.** 122%

**Q.** What about the viability, T/C (second compound 0.1 µM, first compound 3 µM) of the same compound?
**A.** 103%

**Q.** And the viability, T/C (second compound 0.316 µM, first compound 0.00949 µM)?
**A.** 104%

**Q.** And the viability, T/C (second compound 0.316 µM, first compound 0.03 µM)?
**A.** 102%

**Q.** And the viability, T/C (second compound 0.316 µM, first compound 0.0949 µM)?
**A.** 98.3%

**Q.** What about the viability, T/C (second compound 0.316 µM, first compound 0.3 µM) of the same compound?
**A.** 105%

**Q.** And the viability, T/C (second compound 0.316 µM, first compound 0.949 µM)?
**A.** 131%

**Q.** And the viability, T/C (second compound 0.316 µM, first compound 3 µM)?
**A.** 107%

**Q.** And the viability, T/C (second compound 1 µM, first compound 0.00949 µM)?
**A.** 112%

**Q.** What about the viability, T/C (second compound 1 µM, first compound 0.03 µM) of the same compound?
**A.** 91.8%

**Q.** And the viability, T/C (second compound 1 µM, first compound 0.0949 µM)?
**A.** 109%

**Q.** What about the viability, T/C (second compound 1 µM, first compound 0.3 µM) of the same compound?
**A.** 110%

**Q.** What about the viability, T/C (second compound 1 µM, first compound 0.949 µM) of the same compound?
**A.** 128%

**Q.** And the viability, T/C (second compound 1 µM, first compound 3 µM)?
**A.** 97.9%

Source: PubChem BioAssay AID1963441 (Molecular Pharmacology Branch, DTP, NCI, 2024)
